Data: patent US10501518B2 (priority 2013, dated 2019)
pEC50: −log10 of the molar value. Starred links: 1 amine or outer side, 2 acyl side, 3 side chain; linkers in the order of their positions; H or OH if unused. Non-standard residues stand in square brackets, D forms with d. Residues, ends and D or L forms follow the SMILES beside them. *: point of attachment. NH(1S,2S-2-CONH2-cPent) = NC(=O)[C@H]1CCC[C@@H]1N*; X12 = O=C([C@H]1CCC[C@@H]1N[*:1])[*:2]; X13 = O=C([C@H]1CNC[C@@H]1N[*:1])[*:2]; ACPC(1S,2S) = N[C@H]1CCC[C@@H]1C(=O)*

Experiments:
WT rat PTHR-1 = biological target: T1, WT rat PTHR-1 (Rattus norvegicus, UniProt P25961); assay: cAMP GloSensor dose-response in GR-35 cells expressing rat PTHR-1; assay type: cell-based; conditions: Table 7; GR-35 cells, 12-16 minutes after ligand addition; mean ± SEM
T1 construct: expressed in transfected cells
T1 sequence (P25961 27-591): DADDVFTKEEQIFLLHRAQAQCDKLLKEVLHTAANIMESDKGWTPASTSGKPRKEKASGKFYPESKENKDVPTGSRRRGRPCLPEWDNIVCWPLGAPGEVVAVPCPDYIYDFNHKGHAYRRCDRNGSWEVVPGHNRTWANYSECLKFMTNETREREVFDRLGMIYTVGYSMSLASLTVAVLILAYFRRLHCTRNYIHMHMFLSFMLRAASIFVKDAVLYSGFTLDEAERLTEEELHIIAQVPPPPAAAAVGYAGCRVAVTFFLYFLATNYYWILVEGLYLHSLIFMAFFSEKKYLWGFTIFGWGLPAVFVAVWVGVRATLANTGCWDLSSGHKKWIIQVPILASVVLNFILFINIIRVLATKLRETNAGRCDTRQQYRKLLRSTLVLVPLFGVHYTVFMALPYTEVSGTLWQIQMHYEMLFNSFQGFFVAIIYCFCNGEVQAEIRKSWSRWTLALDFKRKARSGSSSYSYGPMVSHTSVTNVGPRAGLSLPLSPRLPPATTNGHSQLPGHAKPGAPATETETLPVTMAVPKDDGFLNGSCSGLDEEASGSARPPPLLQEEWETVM
Method: FIGS. 9A, 9B, and 9C constitute a series of graphs depicting cAMP responses in GR-35 cells expressing rat PTHR-1-WT. […] Data are means (±SEM) of n>4 experiments, each performed in duplicate.
(§1) For cAMP dose-response assays, monolayers of confluent HEK 293 cells were pre-incubated with buffer containing d-luciferin (0.5 mM) in 96 well plates at room temperature until a stable baseline level of luminescence was established (30 min). Varying concentrations of agonist were then added, and the time course of luminescence response was recorded using a Perkin Elmer plate reader following α/β-peptide addition.

WT human PTHR-1 = biological target: T2, WT human PTHR-1 (Homo sapiens, UniProt Q03431); assay: cAMP GloSensor dose-response in GP-2.3 cells expressing human PTHR-1; assay type: cell-based
T2 construct: bioactivity of the resulting compound in full-length hPTHR-1 and a truncated version; expressed in transfected cells
T2 sequence (Q03431 27-593): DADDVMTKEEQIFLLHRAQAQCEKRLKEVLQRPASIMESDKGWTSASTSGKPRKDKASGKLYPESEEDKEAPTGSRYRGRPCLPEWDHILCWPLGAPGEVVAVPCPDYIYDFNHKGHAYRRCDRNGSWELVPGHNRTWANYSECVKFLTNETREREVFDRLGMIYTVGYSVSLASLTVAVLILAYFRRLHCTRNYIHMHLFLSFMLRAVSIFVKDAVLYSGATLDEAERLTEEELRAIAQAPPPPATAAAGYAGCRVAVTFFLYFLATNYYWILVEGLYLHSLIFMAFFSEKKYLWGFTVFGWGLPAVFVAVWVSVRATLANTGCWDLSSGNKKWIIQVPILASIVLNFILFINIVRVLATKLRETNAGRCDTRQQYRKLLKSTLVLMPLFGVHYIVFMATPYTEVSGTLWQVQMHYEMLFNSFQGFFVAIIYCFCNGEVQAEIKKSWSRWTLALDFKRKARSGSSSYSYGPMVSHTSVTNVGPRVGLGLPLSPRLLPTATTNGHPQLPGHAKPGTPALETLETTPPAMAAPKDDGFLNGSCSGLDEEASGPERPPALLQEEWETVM
Method: FIGS. 8A, 8B, and 8C constitute a series of graphs depicting cAMP responses in GP-2.3 cells expressing wild-type human parathyroid hormone receptor 1 (PTHR-1-WT). […] Data are means (±SEM) of n>4 experiments, each performed in duplicate.
as §1

R^0 form of rat PTHR-1 = biological target: T3, R^0 form of rat PTHR-1 (Rattus norvegicus, UniProt P25961); assay: Radio-ligand competition binding to R^0 form of rat PTHR-1; conditions: Table 5; rat PTHR-1; mean ± SEM; read-out: R^0 -log (IC50) (converted)
T3 construct: expressed in transfected cells; host or cells: COS-7
T3 sequence (P25961 27-591): T1 sequence (P25961 27-591)
Source text: Data are means (±SEM) of n≥4 experiments, each performed in duplicate.

PTH2R/PTH1R = assay: cAMP response selectivity between PTH2R and PTH1R; assay type: cell-based; conditions: most selective; for cAMP response PTH2R/PTH1R: Table 16; for cAMP response PTH1R/PTH2R: Table 17
Source text: Selected analogs containing beta-amino acid substitutions selectively signal through one or the other of the two receptors. Without being bound to any underling biological phenomenon or mechanism, PTHR-2 likely serves an alternative function to PTHR-1 as it is highly expressed in the central nervous system. In contrast, PTHR-1 is highly expressed in bone and kidney, but not in the CNS. The analogs disclosed herein are thus useful as therapeutic compounds that a specific agonists or antagonists of PTHR-1 and PTHR-2.

PTHR = biological target: T4, PTHR (Homo sapiens, UniProt Q03431); assay: cAMP induction potency, N-terminal modifications and cyclic constraints (Tables 9, 10, 13); assay type: cell-based; conditions: Table 9
T4 construct: expressed in transfected cells
T4 sequence (Q03431 27-593): T2 sequence (Q03431 27-593)

delNT PTHR1 = biological target: T5, delNT PTHR1 (Homo sapiens, UniProt Q03431, DEL24-181); assay: cAMP-inducing potency at truncated receptor delNT PTHR1; assay type: cell-based
T5 construct: expressed in transfected cells
T5 sequence (Q03431 with tags, fused parts or gaps DEL24-181): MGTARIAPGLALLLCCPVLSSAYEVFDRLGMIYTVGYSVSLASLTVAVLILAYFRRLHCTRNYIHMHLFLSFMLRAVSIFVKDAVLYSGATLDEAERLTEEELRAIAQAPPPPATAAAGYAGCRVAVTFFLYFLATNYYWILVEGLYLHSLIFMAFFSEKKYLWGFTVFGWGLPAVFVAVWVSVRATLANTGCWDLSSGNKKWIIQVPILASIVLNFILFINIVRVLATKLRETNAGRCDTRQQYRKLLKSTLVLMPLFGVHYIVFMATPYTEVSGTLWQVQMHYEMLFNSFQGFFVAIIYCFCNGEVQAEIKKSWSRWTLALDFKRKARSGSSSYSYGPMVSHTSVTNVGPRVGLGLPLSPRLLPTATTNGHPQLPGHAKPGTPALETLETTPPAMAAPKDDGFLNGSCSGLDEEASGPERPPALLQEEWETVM

CC[C@H](C)[C@H](NC(=O)[C@H](CCC(=O)O)NC(=O)[C@H](CO)NC(=O)[C@@H](NC(=O)[C@@H](N)CO)C(C)C)C(=O)N[C@@H](CCC(N)=O)C(=O)N[C@@H](CC(C)C)C(=O)N[C@@H](CCSC)C(=O)N[C@@H](Cc1c[nH]cn1)C(=O)N[C@@H](CC(N)=O)C(=O)N[C@@H](CC(C)C)C(=O)NCC(=O)N[C@@H](CCCCN)C(=O)N[C@@H](Cc1c[nH]cn1)C(=O)N[C@@H](CC(C)C)C(=O)N[C@@H](CC(N)=O)C(=O)N[C@@H](CO)C(=O)N[C@@H](CCSC)C(=O)N[C@@H](CCC(=O)O)C(=O)N[C@@H](CCCNC(=N)N)C(=O)N[C@H](C(=O)N[C@@H](CCC(=O)O)C(=O)N[C@@H](Cc1c[nH]c2ccccc12)C(=O)N[C@@H](CC(C)C)C(=O)N[C@@H](CCCNC(=N)N)CC(=O)N[C@@H](CCCCN)C(=O)N[C@@H](CCCCN)C(=O)N[C@@H](CC(C)C)C(=O)N[C@@H](CCC(N)=O)CC(=O)N[C@@H](CC(=O)O)C(=O)N[C@H](C(=O)N[C@@H](Cc1c[nH]cn1)C(=O)N[C@@H](CC(N)=O)CC(=O)N[C@@H](Cc1ccccc1)C(N)=O)C(C)C)C(C)C [C3]
Max (WT rat PTHR-1): 68 ± 77 luminescence counts per second × 10−3 | pEC50 (WT human PTHR-1; Table 1, GP-2.3 cells, read-out: cAMP (hPTHR-1) EC50): 9.24 | cAMP (hPTHR-1) Max (WT human PTHR-1; Table 1, luminescence counts per second relative to PTH(1-34), 12-16 minutes after ligand addition): 1.03 | Max (WT human PTHR-1; Table 6, GP-2.3 cells, 12-16 minutes after ligand addition, mean ± SEM): 223 ± 14 luminescence counts per second × 10^−3 | agonist activity at hPTHR-1 (cAMP response), in words (WT human PTHR-1; maximum cAMP response compared with PTH(1-34)): full agonists of hPTHR-1 | IC50 (R^0 form of rat PTHR-1): 4.57 nM

CSCC[C@H](NC(=O)[C@H]1CCC[C@@H]1NC(=O)[C@H](CCC(N)=O)NC(=O)[C@H]1CCC[C@@H]1NC(=O)[C@H](CCC(=O)O)NC(=O)[C@H](CO)NC(=O)[C@@H](NC(=O)[C@H]1CCC[C@@H]1N)C(C)C)C(=O)N[C@@H](Cc1c[nH]cn1)C(=O)N[C@@H](CC(N)=O)C(=O)N[C@@H](CC(C)C)C(=O)NCC(=O)N[C@@H](CCCCN)C(=O)N[C@H]1CCC[C@@H]1C(=O)N[C@@H](CC(C)C)C(=O)N[C@@H](CC(N)=O)C(=O)N[C@@H](CO)C(=O)N[C@H]1CCC[C@@H]1C(=O)N[C@@H](CCC(=O)O)C(=O)N[C@@H](CCCNC(=N)N)C(=O)N[C@H](C(=O)N[C@H]1CNC[C@@H]1C(=O)N[C@@H](Cc1c[nH]c2ccccc12)C(=O)N[C@@H](CC(C)C)C(=O)N[C@@H](CCCNC(=N)N)C(=O)N[C@H]1CNC[C@@H]1C(=O)N[C@@H](CCCCN)C(=O)N[C@@H](CC(C)C)C(=O)N[C@@H](CCC(N)=O)C(=O)N[C@H]1CCC[C@@H]1C(=O)N[C@H](C(=O)N[C@@H](Cc1c[nH]cn1)C(=O)N[C@@H](CC(N)=O)C(=O)N[C@H]1CCC[C@@H]1C(N)=O)C(C)C)C(C)C [FcycD6_ACPC(1,5,7), XVSEXQXMHNLGKXLNSXERVZWLRZKLQXVHNX-NH2] ({ACPC(1S,2S)}-VSE[X12]Q[X12]MHNLGK[X12]LNS[X12]ERV[X13]WLR[X13]KLQ[X12]VHN-{NH(1S,2S-2-CONH2-cPent)}; N-terminus assumed)
cAMP response PTH2R/PTH1R (PTH2R/PTH1R): 45 | Fold PTH (PTHR): 234

CC[C@H](C)[C@@H](CC(=O)N[C@@H](CCC(N)=O)C(=O)N[C@@H](CC(C)C)C(=O)N[C@@H](CCSC)C(=O)N[C@@H](Cc1c[nH]cn1)C(=O)N[C@@H](CC(N)=O)C(=O)N[C@@H](CC(C)C)C(=O)NCC(=O)N[C@@H](CCCCN)C(=O)N[C@@H](Cc1c[nH]cn1)C(=O)N[C@@H](CC(C)C)C(=O)N[C@@H](CC(N)=O)C(=O)N[C@@H](CO)C(=O)N[C@@H](CCSC)C(=O)N[C@@H](CCC(=O)O)C(=O)N[C@@H](CCCNC(=N)N)C(=O)N[C@H](C(=O)N[C@@H](CCC(=O)O)C(=O)N[C@@H](Cc1c[nH]c2ccccc12)C(=O)N[C@@H](CC(C)C)C(=O)N[C@@H](CCCNC(=N)N)C(=O)N[C@@H](CCCCN)C(=O)N[C@@H](CCCCN)C(=O)N[C@@H](CC(C)C)C(=O)N[C@@H](CCC(N)=O)C(=O)N[C@@H](CC(=O)O)C(=O)N[C@H](C(=O)N[C@@H](Cc1c[nH]cn1)C(=O)N[C@@H](CC(N)=O)C(=O)N[C@@H](Cc1ccccc1)C(N)=O)C(C)C)C(C)C)NC(=O)[C@H](CCC(=O)O)NC(=O)[C@H](CO)NC(=O)[C@@H](NC(=O)[C@@H](N)CO)C(C)C [β^3Ile(5)]
cAMP-inducing potency in delNT PTHR-1, in words (delNT PTHR1): weak or no potency | deINT PTHR1 EC50, nM (Means ± SEM) (delNT PTHR1; Table 8, truncated receptor lacking Ala^24-Arg^181): No activity

CC[C@H](C)[C@H](NC(=O)[C@H](CCC(=O)O)NC(=O)[C@H](CO)NC(=O)[C@@H](NC(=O)[C@@H](N)CO)C(C)C)C(=O)N[C@@H](CCC(N)=O)C(=O)N[C@H](CC(=O)N[C@@H](CCSC)C(=O)N[C@@H](Cc1c[nH]cn1)C(=O)N[C@@H](CC(N)=O)C(=O)N[C@@H](CC(C)C)C(=O)NCC(=O)N[C@@H](CCCCN)C(=O)N[C@@H](Cc1c[nH]cn1)C(=O)N[C@@H](CC(C)C)C(=O)N[C@@H](CC(N)=O)C(=O)N[C@@H](CO)C(=O)N[C@@H](CCSC)C(=O)N[C@@H](CCC(=O)O)C(=O)N[C@@H](CCCNC(=N)N)C(=O)N[C@H](C(=O)N[C@@H](CCC(=O)O)C(=O)N[C@@H](Cc1c[nH]c2ccccc12)C(=O)N[C@@H](CC(C)C)C(=O)N[C@@H](CCCNC(=N)N)C(=O)N[C@@H](CCCCN)C(=O)N[C@@H](CCCCN)C(=O)N[C@@H](CC(C)C)C(=O)N[C@@H](CCC(N)=O)C(=O)N[C@@H](CC(=O)O)C(=O)N[C@H](C(=O)N[C@@H](Cc1c[nH]cn1)C(=O)N[C@@H](CC(N)=O)C(=O)N[C@@H](Cc1ccccc1)C(N)=O)C(C)C)C(C)C)CC(C)C [β^3Leu(7)]
cAMP-inducing potency in delNT PTHR-1, in words (delNT PTHR1): weak or no potency

hPTHrP(1-36): parathyroid hormone-related protein fragment, comparator in the PTH2R/PTH1R cAMP response tables
cAMP response PTH2R/PTH1R (PTH2R/PTH1R): 0.04 | cAMP response PTH1R/PTH2R (PTH2R/PTH1R): 27

hTIP(1-39): comparator peptide in the PTH2R/PTH1R cAMP response tables (SLALADDAAFRERARLLAALERRHWLNSYMHKLLVLDAP)
cAMP response PTH2R/PTH1R (PTH2R/PTH1R): 165 | cAMP response PTH1R/PTH2R (PTH2R/PTH1R): 0.01
